Measurements published in US20230167088A1, “1-PYRAZINYLPYRAZOLYL-3-OXYALKYL ACIDS AND THEIR DERIVATIVES, AND THEIR USE FOR CONTROL OF UNDESIRED PLANT GROWTH” (BAYER AKTIENGESELLSCHAFT, priority 2020, published 2023).

What was measured:
[1] = test system: ALOMY; test: Herbicidal post-emergence action 1a (greenhouse pots, visual rating); assay type: in vivo, Alopecurus myosuroides; details: rated visually about 3 weeks after treatment, 100% = plants have died, 0% = like control plants
In short: (§1)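 Weeds and crops sown in sandy loam in greenhouse pots were sprayed post-emergence at the one-leaf stage (2–3 weeks after sowing) with WP or EC formulations plus 0.5% additive at 600 l/ha water, 320 and/or 80 g/ha. About 3 weeks later damage was rated visually against untreated controls (0% = no effect, 100% = dead).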

[2] = test system: AVEFA; test: as above; assay type: in vivo, Avena fatua; details: rated visually about 3 weeks after treatment, 100% = plants have died, 0% = like control plants
In short: as §1

[3] = test system: ECHCG; test: as above; assay type: in vivo, Echinochloa crus-galli; details: Dosage 320 g/ha; rated visually about 3 weeks after treatment; 100% = plants have died, 0% = like control plants
In short: as §1

[4] = test system: LOLRI; test: as above; assay type: in vivo, Lolium rigidum; details: rated visually about 3 weeks after treatment, 100% = plants have died, 0% = like control plants
In short: as §1

[5] = test system: SETVI; test: as above; assay type: in vivo, Setaria viridis; details: rated visually about 3 weeks after treatment, 100% = plants have died, 0% = like control plants
In short: as §1

[6] = test system: ABUTH; test: as above; assay type: in vivo, Abutilon theophrasti; details: visual rating about 3 weeks after treatment
In short: as §1

[7] = test system: AMARE; test: as above; assay type: in vivo, Amaranthus retroflexus; details: visual rating about 3 weeks after treatment
In short: as §1

[8] = test system: PHBPU; test: as above; assay type: in vivo, Pharbitis purpurea; details: visual rating about 3 weeks after treatment
In short: as §1

[9] = test system: VERPE; test: as above; assay type: in vivo, Veronica persica; details: visual rating about 3 weeks after treatment
In short: as §1

[10] = test system: ALOMY; test: Herbicidal pre-emergence action 2a (greenhouse pots, visual scoring); assay type: in vivo, Alopecurus myosuroides; details: dosage 320 g/ha, visual scoring after about 3 weeks
In short: (§2)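 Seeds were sown in pots, covered with soil, and the compound (WP or EC formulation) was sprayed onto the soil surface as an aqueous suspension or emulsion with 0.5% additive at 600 l/ha water, at 320 g/ha and/or 80 g/ha. Greenhouse growth followed for about 3 weeks, then visual scoring against untreated controls.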

[11] = test system: AVEFA; test: as above; assay type: in vivo, Avena fatua; details: dosage 320 g/ha, visual scoring after about 3 weeks
In short: as §2

[12] = test system: ECHCG; test: as above; assay type: in vivo, Echinochloa crus-galli; details: dosage 320 g/ha, visual scoring after about 3 weeks
Source text: (§3) [table] a) Seeds of monocotyledonous and dicotyledonous weed plants and crop plants are placed in plastic or organic plant pots and covered with soil. The compounds of the invention, formulated in the form of wettable powders (WP) or as emulsion concentrates (EC), are then applied onto the surface of the covering soil as aqueous suspension or emulsion with addition of 0.5% additive at a water application rate of 600 1/ha (converted). After the treatment, the pots are placed in a greenhouse and kept under good growth conditions for the trial plants. After about 3 weeks, the effect of the preparations is scored visually in comparison with untreated controls as percentages. For example, 100% activity=the plants have died, 0% activity=like control plants. Tables B1 to B15 below show the effects of selected compounds of the general formula (I) according to Tables 1 and 2 on various harmful plants and an application rate corresponding to 320 g/ha and/or 80 g/ha, which were obtained by the experimental procedure mentioned above.

[13] = test system: LOLRI; test: as above; assay type: in vivo, Lolium rigidum; details: dosage 320 g/ha, visual scoring after about 3 weeks vs untreated controls
In short: as §2

[14] = test system: SETVI; test: as above; assay type: in vivo, Setaria viridis; details: dosage 320 g/ha, visual scoring after about 3 weeks vs untreated controls
In short: as §2

[15] = test system: AMARE; test: as above; assay type: in vivo, Amaranthus retroflexus; details: dosage 320 g/ha, visual scoring after about 3 weeks vs untreated controls
In short: as §2

[16] = test system: MATIN; test: as above; assay type: in vivo, Matricaria inodora; details: dosage 320 g/ha, visual scoring after about 3 weeks vs untreated controls
In short: as §2

[17] = test system: PHBPU; test: as above; assay type: in vivo, Pharbitis purpurea; details: dosage 320 g/ha, visual scoring after about 3 weeks vs untreated controls
Source text: as §3

[18] = test system: POLCO; test: as above; assay type: in vivo, Polygonum convolvulus; details: dosage 320 g/ha, visual scoring after about 3 weeks vs untreated controls
In short: as §2

[19] = test system: VERPE; test: as above; assay type: in vivo, Veronica persica; details: dosage 320 g/ha, visual scoring after about 3 weeks vs untreated controls
In short: as §2

[20] = test system: DIGSA; test: Herbicidal post-emergence action 1a (greenhouse pots, visual rating); assay type: in vivo, Digitaria sanguinalis; details: rated visually about 3 weeks after treatment, 100% = plants have died, 0% = like control plants
Method: (§4) [table] a) Seeds of monocotyledonous and dicotyledonous weeds and crop plants are placed in sandy loam in plastic or organic plant pots, covered with soil and cultivated in a greenhouse under controlled growth conditions. 2 to 3 weeks after sowing, the test plants are treated at the one-leaf stage. The compounds of the invention, formulated in the form of wettable powders (WP) or as emulsion concentrates (EC), are then sprayed onto the green parts of the plants as aqueous suspension or emulsion with addition of 0.5% additive at a water application rate of 600 1/ha (converted). After the test plants have been kept in the greenhouse under optimum growth conditions for about 3 weeks, the activity of the preparations is rated visually in comparison to untreated controls. For example, 100% activity=the plants have died, 0% activity=like control plants. Tables A1 to A15 below show the effects of selected compounds of the general formula (I) according to Tables 1 and 2 on various harmful plants and an application rate corresponding to 320 g/ha and/or 80 g/ha, which were obtained by the experimental procedure mentioned above.

[21] = test system: POLCO; test: as above; assay type: in vivo, Polygonum convolvulus; details: dosage 320 g/ha, visual rating about 3 weeks after treatment
In short: as §1

[22] = test system: VIOTR; test: as above; assay type: in vivo, Viola tricolor; details: visual rating about 3 weeks after treatment
In short: as §1

[23] = test system: DIGSA; test: Herbicidal pre-emergence action 2a (greenhouse pots, visual scoring); assay type: in vivo, Digitaria sanguinalis; details: dosage 320 g/ha, visual scoring after about 3 weeks
Source text: as §3

[24] = test system: VIOTR; test: as above; assay type: in vivo, Viola tricolor; details: dosage 320 g/ha, visual scoring after about 3 weeks vs untreated controls
In short: as §2

[25] = test system: harmful plants; test: Herbicidal post-emergence action 1a, summary across species; assay type: in vivo; details: Tables A1 to A15 (320 g/ha and/or 80 g/ha)
Method: as §4, with “a)” for “[table] a)”, “plants.” for “plants. Tables A1 to A15 below show the effects of selected compounds of the general formula (I) according to Tables 1 and 2 on various harmful plants and an application rate corresponding to 320 g/ha and/or 80 g/ha, which were obtained by the experimental procedure mentioned above.”
Tables A1 to A15 below show the effects of selected compounds of the general formula (I) according to Tables 1 and 2 on various harmful plants and an application rate corresponding to 320 g/ha and/or 80 g/ha, which were obtained by the experimental procedure mentioned above.
For example, compound nos. I-05, I-07, I-08, I-10, I-12, I-16, I-17, I-22, I-36, I-37, I-39 and I-40 in the post-emergence method have very good action (80% to 100% herbicidal activity) against harmful plants such as Alopecurus myosuroides, Amaranthus retroflexus, Avena fatua, Lolium rigidum, Polygonum convolvulus, Setaria viridis, Veronica persica and Viola tricolor at an application rate of 0.32 kg of active substance per hectare.

[26] = test system: harmful plants; test: Herbicidal pre-emergence action 2a, summary across species; assay type: in vivo; details: Tables B1 to B15 (320 g/ha and/or 80 g/ha)
Source text: as §3, with “a)” for “[table] a)”, “plants.” for “plants. Tables B1 to B15 below show the effects of selected compounds of the general formula (I) according to Tables 1 and 2 on various harmful plants and an application rate corresponding to 320 g/ha and/or 80 g/ha, which were obtained by the experimental procedure mentioned above.”
Tables B1 to B15 below show the effects of selected compounds of the general formula (I) according to Tables 1 and 2 on various harmful plants and an application rate corresponding to 320 g/ha and/or 80 g/ha, which were obtained by the experimental procedure mentioned above.
For example, compound nos. I-07, I-08, I-11, I-12, I-13, I-16, I-17, I-20, I-36, I-37, I-39, I-45, I-46, I-48, I-52 and I-53 in the pre-emergence method have very good action (80% to 100% herbicidal activity) against harmful plants such as Alopecurus myosuroides, Amaranthus retroflexus, Digitaria sanguinalis, Lolium rigidum, Polygonum convolvulus, Setaria viridis, Veronica persica and Viola tricolor at an application rate of 0.32 kg of active substance per hectare.

O=C(O)COc1nn(-c2cnccn2)c(-c2cncc(F)c2)c1Br [Example I-93]
90%: Post-emergence action against ECHCG in % [3] | Post-emergence action against LOLRI in % ([4]; Dosage 320 g/ha) | Post-emergence action against SETVI in % ([5]; Dosage 80 g/ha) | Post-emergence action against SETVI in % ([5]; Dosage 320 g/ha) | Post-emergence action against AMARE in % ([7]; dosage 80 g/ha) | Post-emergence action against AMARE in % ([7]; dosage 320 g/ha) | Post-emergence action against PHBPU in % ([8]; dosage 80 g/ha) | Post-emergence action against PHBPU in % ([8]; dosage 320 g/ha) | Pre-emergence action against ALOMY in % [10]
100%: Post-emergence action against ALOMY in % ([1]; Dosage 320 g/ha) | Post-emergence action against AVEFA in % ([2]; Dosage 80 g/ha) | Post-emergence action against AVEFA in % ([2]; Dosage 320 g/ha) | Pre-emergence action against AVEFA in % [11] | Pre-emergence action against ECHCG in % [12] | Pre-emergence action against LOLRI in % [13] | Pre-emergence action against SETVI in % [14] | Pre-emergence action against AMARE in % [15] | Pre-emergence action against MATIN in % [16] | Pre-emergence action against PHBPU in % [17] | Pre-emergence action against POLCO in % [18] | Pre-emergence action against VERPE in % [19]
80%: Post-emergence action against ABUTH in % ([6]; dosage 80 g/ha) | Post-emergence action against ABUTH in % ([6]; dosage 320 g/ha) | Post-emergence action against VERPE in % ([9]; dosage 80 g/ha) | Post-emergence action against VERPE in % ([9]; dosage 320 g/ha)

COC(=O)[C@@H](C)Oc1nn(-c2cnccn2)c(-c2ccc(F)nc2)c1Br [Example I-17]
90%: Post-emergence action against AVEFA in % ([2]; Dosage 80 g/ha) | Post-emergence action against DIGSA in % ([20]; Dosage 320 g/ha) | Post-emergence action against ECHCG in % [3] | Post-emergence action against LOLRI in % ([4]; Dosage 80 g/ha) | Post-emergence action against LOLRI in % ([4]; Dosage 320 g/ha) | Post-emergence action against POLCO in % [21] | Post-emergence action against VIOTR in % ([22]; dosage 80 g/ha) | Post-emergence action against VIOTR in % ([22]; dosage 320 g/ha) | Post-emergence action against VERPE in % ([9]; dosage 320 g/ha) | Pre-emergence action against POLCO in % [18]
100%: Post-emergence action against ALOMY in % ([1]; Dosage 80 g/ha) | Post-emergence action against ALOMY in % ([1]; Dosage 320 g/ha) | Post-emergence action against AVEFA in % ([2]; Dosage 320 g/ha) | Pre-emergence action against ALOMY in % [10] | Pre-emergence action against AVEFA in % [11] | Pre-emergence action against DIGSA in % [23] | Pre-emergence action against ECHCG in % [12] | Pre-emergence action against LOLRI in % [13] | Pre-emergence action against SETVI in % [14] | Pre-emergence action against AMARE in % [15] | Pre-emergence action against VIOTR in % [24] | Pre-emergence action against VERPE in % [19]
80%: Post-emergence action against DIGSA in % ([20]; Dosage 80 g/ha) | Post-emergence action against SETVI in % ([5]; Dosage 320 g/ha) | Post-emergence action against ABUTH in % ([6]; dosage 80 g/ha) | Post-emergence action against ABUTH in % ([6]; dosage 320 g/ha) | Post-emergence action against AMARE in % ([7]; dosage 80 g/ha) | Post-emergence action against AMARE in % ([7]; dosage 320 g/ha)
good herbicidal efficacy: herbicidal efficacy against harmful plants in the case of post-emergence treatment (in words) [25] | herbicidal efficacy against harmful plants in the case of pre-emergence treatment (in words) [26]
